In patent publication US8927534B2, “Compounds for the inhibition of integrins and use thereof” (Shire Orphan Therapies GmbH, priority 2006, dated 2015):

Experiments:
[1] = molecular target: integrin alpha5beta1 extracellular domain Fc-fusion (Homo sapiens (Human), UniProt P05556+P08648); experiment: alpha5beta1-Fibronectin binding assay (competitive ELISA); settings: inhibition of integrin binding to coated fibronectin
Procedure: (§1) The optimal concentrations of integrin and ligand were selected from ELISA binding studies with variable concentrations of both to obtain optimal signal noise ratio for further studies. IC50 studies were performed with fixed concentration of ligand and integrin and a serial dilution of inhibitor. The plates were measured with SpectraMax Plus reader (Molecular Devices). The resulting inhibition curves were analyzed using SoftMaxPro 4.0 software, the turning point describes the IC50 value.
(§2) Fibronectin was purchased from Sigma and fibrinogen from Calbiochem. (EMD Biosciences, Darmstadt, Germany). The integrin alpha5beta1 extracellular domain Fc-fusion was expressed and purified as described (Coe, 2001, J. Biol. Chem., 276, 35854). Integrin alphaIIbbeta3 was purchased form Kordia (Kordia Life Science, Leiden, Netherlands)
Fibronectin was diluted with coating buffer (15 mM Na2CO3, 35 mM NaHCO3, pH 9.6) and coated with 100 μL/well to Nunc-Immuno maxisorp plates (Nalge Nunc Europe Ltd) over night at 4° C. After discarding the coating solution plates were washed 3 times with buffer 1 (25 mM Tris, pH 7.6, 150 mM NaCl, 1 mM MnCl2, 1 mg/ml BSA) and blocked with 100 μL blocking buffer (3% BSA in PBS 0.1% Tween20) for 1 hour at room temperature. After washing the blocked plates (3 times) with buffer 1, integrin (50 μL) and either inhibitor (serial dilution in buffer 1) or buffer 1 (50 μL) were added to the wells and incubated for one hour at RT. Plates were then washed (3 times) with buffer 1 and incubated with 100 μL of anti-human-Fc-HRP antibody conjugate (Sigma-Aldrich, Taufkirchen, Germany) in buffer 1 for 1 hour at RT. After additional washing steps (3 times) with buffer 150 μL of HRP substrate solution TMB (Seramun, Germany) were added to the wells. Color development was stopped after 3-5 minutes with 50 μL 1 M H2SO4. The developed color was measured at 450 nm and analyzed as described above.

Integrin alphaIIbbeta3 = Integrin alphaIIbbeta3 (Homo sapiens (Human), UniProt P05106+P08514); experiment: alphaIIbbeta3-Fibrinogen binding assay (competitive ELISA); settings: inhibition of integrin binding to coated fibrinogen; read-out: IC50 alphabIIbbeta3
Procedure: as §1, §2
Fibrinogen was diluted with coating buffer (15 mM Na2CO3, 35 mM NaHCO3, pH 9.6) and coated with 100 μL/well to Nunc-Immuno maxisorp plates over night at 4° C. After discarding the coating solution plates were washed 3 times with buffer 1 (25 mM Tris, pH 7.6, 150 mM NaCl, 1 mM MnCl2, 1 mg/ml BSA) and blocked with 100 μL blocking buffer (3% BSA in PBS 0.1% Tween20) for 1 hour at room temperature. After washing the blocked plates (3 times) with buffer 1, integrin alphaIIbbeta3 (50 μL) and either inhibitor (serial dilution in buffer 3, 25 mM Tris, pH 7.6, 150 mM NaCl, 1 mM MnCl2, 1 mg/ml BSA 1 mM MgCl2, 1 mM CaCl2,) or buffer 3 (50 μL) were added to the wells and incubated for one hour at RT. Plates were then washed (3 times) with buffer 3 and incubated with 100 μL of anti-alphaIIbbeta3 antibody (anti CD41b, Pharmingen) in buffer 3 for 1 hour at RT. Plates were washed (3 times) with buffer 3 and incubated for 1 hour with 100 μL secondary antibody (anti-mouse-HRP conjugate, Sigma) in buffer 3. After additional washing steps (3 times) with buffer 350 μL of HRP substrate solution TMB (Seramun) were added to the wells. Color development was stopped after 3-5 minutes with 50 μL 1 M H2SO4. The developed color was measured at 450 nm and analyzed as described above.

alpha5beta1 = alpha5beta1 (Homo sapiens (Human), UniProt P05556+P08648); experiment: Cell adhesion assay with HEK293; assay type: cell-based; settings: HEK293 cells, fibronectin-coated plates, 1 h at 37° C., 2 mM MgCl2
Procedure: Cryopreservated cells were thawed and grown for 72 h in DMEM medium with 10% FCS, 2 mM glutamine, 100 U/ml penicillin and 100 μg/ml streptomycin before use.
Cells were detached with cell dissociation solution (Sigma) and suspended in growth medium, centrifuged and resuspended in buffer A (150 mM NaCl, 25 mM HEPES, 2 mM EDTA, pH 7.4). Cells were incubated for 30 min at 37° C. in a 5% CO2. Subsequently, cells were washed with pre-warmed buffer B (150 mM NaCl, 25 mM HEPES pH 7.4) and resuspended in buffer B. 96-well Maxisorp-plate were coated with 0.01% poly-L-lysine, 10 μg/ml fibronectin (Chemicon; #F1904) in carbonate buffer or carbonate buffer alone (15 mM Na2CO3, 35 mM NaHCO3, pH 9.6) for 1 h at RT. Plates were washed and blocked with 1% BSA for 30 min at RT. Cells were preincubated with test compound and adjusted DMSO concentrations for 10 min at RT. 7×10^4 cells per well were plated in triplicate and allowed to attach for 1 h at 37° C. in the presence of 2 mM MgCl2. Cells were washed with PBS and adherent cells were fixed with 5% glutaraldehyde for 30 min.
Cells were subsequently washed and stained with 0.1% Crystal Violet for 1 hr at 37° C. Plates were washed and incorporated dye was solubilized with 10% acetic acid. Absorbance was measured at 570 nm using a Spectramax Plus 384 microtiter plate reader and analyzed with SoftMaxPro (Molecular Devices). Minimal binding on BSA was subtracted. IC50 values were determined using XL-FIT.

HUVEC = experiment: Migration assay with HUVEC; assay type: cell-based; settings: Homo sapiens, transwell coated with chymotryptic fibronectin fragment, 10 ng/ml bFGF chemoattractant, 3 h
Procedure: Migration assays are carried out using modified Boyden chambers consisting of Fluoroblock Transwell membrane filter (8 μm pores) in 24 well companion tissue plates (BD). Three wells per group are used.
The underfaces of the transwell membranes are coated with chymotryptic fibronectin fragment (10 μg/ml; Chemicon) and blocked with 2% BSA for 1 h at room temperature. After rinsing with PBS transwells are placed into companion plates containing 700 μl serumfree medium with indicated compound concentrations and chemoattractant (10 ng/ml bFGF; Promocell).
HUVEC are maintained in standard culture medium (Endothelial Cell Growth Medium; Promocell, containing supplement mix and 2% FCS) in a humified 5% CO2 incubator at 37° C. Cells are grown to 70-90% confluency and are made quiescent in culture medium containing 0.5% FCS, 0.1% BSA, no supplements for 16 h. Medium is removed and serum-free medium (0% FCS; 0.1% BSA, no supplements) is added for 1.5 h. Cells are detached with trypsin and cell suspension is adjusted to 1×10^5/ml. Indicated compound concentrations are added to cells. Cells are preincubated with compounds for 15 min, before seeding of 250 μl of the cell suspensions into the transwells. Cells are allowed to migrate for 3 h in 37° C. incubator with 5% CO2. Then, transwells are transferred to 24 well companion tissue plates containing Calcein AM (4 μM; Molecular Probes) in HBSS and incubated for another 2 h. Plates are read at excitation/emission […] in a fluorescence reader.
Results are expressed as percent of control (cells in serumfree medium without compound and chemoattractant.

| IC50 [1] | IC50 (Integrin alphaIIbbeta3) | IC50 (alpha5beta1) | Structure (SMILES) | IC50 (HUVEC) |
| --- | --- | --- | --- | --- |
| < 100 nM | – | < 2000 nM | Cc1ccnc(NCC2CC(=O)N(c3ccc(CC(NC(=O)c4c(C)cc(C)cc4C)C(=O)O)cc3)C2)c1 (centres unmarked) [Compound 114, 3-(4-(4-((4-methylpyridin-2-ylamino)methyl)-2-oxopyrrolidin-1-yl)phenyl)-2-(2,4,6-trimethylbenzamido)propanoic acid] | < 10000 nM |
| < 100 nM | > 1000 nM | < 2000 nM | CCc1cc(F)cc(C)c1C(=O)NC(Cc1ccc(N2CCC(CNc3ccccn3)CC2)cc1)C(=O)O (centres unmarked) [Compound 120, 2-(2-ethyl-4-fluoro-6-methylbenzamido)-3-(4-(4-((pyridin-2-ylamino)methyl)piperidin-1-yl)phenyl)propanoic acid] | < 10000 nM |
| < 100 nM | – | < 2000 nM | COc1ccnc(NCC2CCN(c3ccc(CC(NC(=O)c4c(C)cc(C)cc4C)C(=O)O)cc3)CC2)c1 (centres unmarked) [Compound 147, 3-(4-(4-((4-methoxypyridin-2-ylamino)methyl)piperidin-1-yl)phenyl)-2-(2,4,6-trimethylbenzamido)propanoic acid] | – |
| < 100 nM | – | 2000 to 20000 nM | Cc1ccnc(NCC2CCN(c3ccc(CC(NC(=O)c4ccccc4)C(=O)O)cc3)CC2)c1 (centres unmarked) [Compound 262, 2-benzoylamino-3-(4-{4-[(4-methyl-pyridin-2-ylamino)methyl]piperidin-1-yl}phenyl)propionic acid] | – |
| < 100 nM | > 1000 nM | < 2000 nM | Cc1ccnc(NCC2CCN(c3ccc(CC(NC(=O)C(c4ccccc4)C(C)C)C(=O)O)cc3)CC2)c1 (centres unmarked) [Compound 266, 2-(3-methyl-2-phenyl-butyrylamino)-3-(4-{4-[(4-methyl-pyridin-2-ylamino)methyl]piperidin-1-yl}phenyl)propionic acid] | – |
| < 100 nM | > 1000 nM | > 20000 nM | CCCNC(=O)NCC1CCN(c2ccc(CC(NC(=O)c3c(C)cc(C)cc3C)C(=O)O)cc2)CC1 (centres unmarked) [Compound 269, 3-(4-{4-[(3-propyl-ureido)methyl]piperidin-1-yl}phenyl)-2-(2,4,6-trimethyl-benzoylamino)propionic acid] | – |

More lines, now with the values behind:

| Structure (SMILES) | IC50 [1] | IC50 (Integrin alphaIIbbeta3) | IC50 (alpha5beta1) | IC50 (HUVEC) |
| --- | --- | --- | --- | --- |
| Cc1ccnc(NCC2CCN(c3ccc(CC(NC(=O)c4c(C)cc(C)cc4C)C(=O)O)cc3)CC2)c1 (centres unmarked) [Compound 8, 3-(4-(4-((4-methylpyridin-2-ylamino)methyl)piperidin-1-yl)phenyl)-2-(2,4,6-trimethylbenzamido)propanoic acid] | < 100 nM | > 1000 nM | < 2000 nM | < 10000 nM |
| Cc1cc(C)c(C(=O)NC(Cc2ccc(N3CC(CNc4ccccn4)C3)cc2)C(=O)O)c(C)c1 (centres unmarked) [Compound 11, 3-(4-(3-((pyridin-2-ylamino)methyl)azetidin-1-yl)phenyl)-2-(2,4,6-trimethylbenzamido)propanoic acid] | > 100 nM | > 1000 nM | > 20000 nM | – |
| Cc1cc(C)c(C(=O)NC(Cc2ccc(N3CCC(CNc4nc5ccccc5[nH]4)CC3)cc2)C(=O)O)c(C)c1 (centres unmarked) [Compound 20, 3-(4-(4-((1H-benzo[d]imidazol-2-ylamino)methyl)piperidin-1-yl)phenyl)-2-(2,4,6-trimethylbenzamido)propanoic acid] | > 100 nM | > 1000 nM | 2000 to 20000 nM | – |
| Cc1cc(C)c(C(=O)NC(Cc2ccc(N3CCC(c4ccc5c(n4)NCCC5)CC3)cc2)C(=O)O)c(C)c1 (centres unmarked) [Compound 23, 3-(4-(4-(5,6,7,8-tetrahydro-1,8-naphthyridin-2-yl)piperidin-1-yl)phenyl)-2-(2,4,6-trimethylbenzamido)propanoic acid] | < 100 nM | > 1000 nM | < 2000 nM | < 10000 nM |
| CC1(C(=O)NC(CC2CCN(C(=O)CCc3ccc4c(n3)NCCC4)CC2)C(=O)O)CCCCC1 (centres unmarked) [Compound 29, 2-(1-methylcyclohexanecarboxamido)-3-(1-(3-(5,6,7,8-tetrahydro-1,8-naphthyridin-2-yl)propanoyl)piperidin-4-yl)propanoic acid] | < 100 nM | > 1000 nM | 2000 to 20000 nM | > 20000 nM |
| Cc1ccnc(NCC2CCN(c3ccc(CC(NC(=O)C4(C)CCCCC4)C(=O)O)cc3)CC2)c1 (centres unmarked) [Compound 75, 2-(1-methylcyclohexanecarboxamido)-3-(4-(4-((4-methylpyridin-2-ylamino)methyl)piperidin-1-yl)phenyl)propanoic acid] | < 100 nM | > 1000 nM | < 2000 nM | – |
